# Literature values as cited in US20080166420A1, “Krill Oil Compositions” (priority 2007, published 2008).
structure (smiles),measurement,setting,value
"O=C(O)c1cccnc1 [Niacin, niacin]",C-reactive protein (CRP),clinically shown,reduce
same,high density lipoproteins,clinically shown,significant increase
same,lipoprotein (a),clinically shown,significant reduction
same,low density lipoproteins,clinically shown,reduction
same,total cholesterol,clinically shown,reduction
same,triglycerides,clinically shown,significant reduction
same,fibrinogen,in vivo,reduce
